Data from patent publication US20080260639A1, “PREPARATION AND METHOD UTILIZING RADIOLABELED CHLOROTOXIN” (priority 2004, published 2008).

Key:
[1] = Storage stability of 1-131 Hippuran: percent remaining bound; assay type: physicochemical; settings: 1 mCi per vial
Description: As another example, 1-131 Hippuran was prepared. The 1-131 Hippuran was prepared as follows: 9 vials were prepared of 1-131 Hippuran in solution with a radioactive concentration of MIBG of 1 mCi per vial. Each vial had 4 cc. The 1-131 in seven of those vials was then stabilized and lyophilized according to the process described in this invention. One vial was frozen and maintained at a temperature of −10 degrees, and another vial was maintained room temperature. Room temperature was selected because Hippuran is thought to be stable at room temperature even in conjunction with a radioisotope. […]

[2] = Storage stability of I-131 MIBG: percent of iodine remaining bound to the MIBG; assay type: physicochemical; settings: for percent of iodine remaining bound to the MIBG: 1 mCi per vial
Text: The radioactive diagnostic radiopharmaceutical in this invention requires no further cold or refrigerated storage, including with respect to shipping, subsequent to stabilization. The lyophilized radiopharmaceutical composition is reconstituted “on site” for administration to patients by the addition of a suitable diluent to bring the radiopharmaceutical complex into solution at the time of administration to the patient. For administration, the I-123 labeled MIBG in the vial must be reconstituted. Because of the minute quantity of material, the vial of radionuclide complex, in the preferred mode the I-123 labeled MIBG will appear empty. The MIBG ligand is stable for several days because of the absence of water which is the primary substance from which free radicals are generated by gamma ray collisions with water molecules. The gamma rays are being emitted by the radionuclide, that is the I-123. The health care provider would add up to 2 ml. of sterile normal saline. The desired dose would be withdrawn and measured in a dose calibrator of a type manufactured by Capintec of Montville, N.J. If the glass vial is measured in the dose calibrator, the person measuring the dose must recognize that the glass vial will decrease the apparent activity. Upon calibration of the desired dose, the I-123 MIBG now re-dissolved in the solution is promptly administered to the patient. The advantages are that the flash freezing and lowering of vapor pressure result in quick formation and evaporation or sublimation (evaporation from ice to water vapour (a gas)) of water from the I-123 MIBG. The I-123 MIBG need not be shipped frozen in dry ice nor need it be shipped for overnight delivery. Shipping in dry ice over a weekend is generally not commercially practical. The I-123 MIBG can be shipped over the weekend and be used on Monday while simply maintaining it at room temperature or below. In order to establish the advantages of the novel process and resulting composition, a series of tests were run utilizing meta iodo benzyl guanidine (MIBG) in which the radionuclide I-131 was the iodine in the MIBG.
The MIBG was prepared as follows: eight vials were prepared of MIBG in solution with a radioactive concentration of MIBG of 1 mCi per vial. The MIBG in six of those vials were then stabilized and lyophilized according to the process described in this invention. One vial was frozen and maintained at a temperature of −10 degrees, and another vial was simply refrigerated at approximately 5 degrees.
Six vials were prepared according to the process in this invention in order to enable several to be reconstituted from the lyophilized state and their activity tallied.
The radioactive concentration of MIBG per vial was 1 mCi per vial.
The results showing the percent of iodine remaining bound to the MIBG are set forth in table I. One each of the vials was reconstituted after 24, 48, 72 and 168 hours respectively.

O=C([O-])CNC(=O)c1ccccc1[131I].[Na+] [Hippuran]
percent of Hippuran remaining bound to the I-123 ([1]; Frozen −10°, 0 hours): 98%
percent of Hippuran remaining bound to the I-123 ([1]; Frozen −10°, 24 hrs): 97.8%
percent of Hippuran remaining bound to the I-123 ([1]; Frozen −10°, 48 hrs): 97%
percent of Hippuran remaining bound to the I-123 ([1]; Frozen −10°, 72 hrs): 94%
percent of Hippuran remaining bound to the I-123 ([1]; Frozen −10°, 96 hrs): 92.5%
percent of Hippuran remaining bound to the I-123 ([1]; Frozen −10°, 120 hrs): 91%
percent of Hippuran remaining bound to the I-123 ([1]; Lyophilized and stabilized per invention, stored at room temp., 0 hours): 98%
percent of Hippuran remaining bound to the I-123 ([1]; Lyophilized and stabilized per invention, stored at room temp., 24 hrs): 98.4%
percent of Hippuran remaining bound to the I-123 ([1]; Lyophilized and stabilized per invention, stored at room temp., 48 hrs): 98.6%
percent of Hippuran remaining bound to the I-123 ([1]; Lyophilized and stabilized per invention, stored at room temp., 72 hrs): 98%
percent of Hippuran remaining bound to the I-123 ([1]; Lyophilized and stabilized per invention, stored at room temp., 96 hrs): 98.4%
percent of Hippuran remaining bound to the I-123 ([1]; Lyophilized and stabilized per invention, stored at room temp., 120 hrs): 98.5%
percent of Hippuran remaining bound to the I-123 ([1]; Room Temp. (solution, not lyophilized), 0 hours): 98%
percent of Hippuran remaining bound to the I-123 ([1]; Room Temp. (solution, not lyophilized), 24 hrs): 96%
percent of Hippuran remaining bound to the I-123 ([1]; Room Temp. (solution, not lyophilized), 48 hrs): 95%
percent of Hippuran remaining bound to the I-123 ([1]; Room Temp. (solution, not lyophilized), 72 hrs): 94.5%
percent of Hippuran remaining bound to the I-123 ([1]; Room Temp. (solution, not lyophilized), 96 hrs): 92%
percent of Hippuran remaining bound to the I-123 ([1]; Room Temp. (solution, not lyophilized), 120 hrs): 90%

N=C(N)NCc1cccc([131I])c1 [MIBG, meta iodo benzyl guanidine]
percent of iodine remaining bound to the MIBG ([2]; Frozen −10°, 24 hours): 94%
percent of iodine remaining bound to the MIBG ([2]; Frozen −10°, 48 hours): 91%
percent of iodine remaining bound to the MIBG ([2]; Frozen −10°, 72 hours): 84%
percent of iodine remaining bound to the MIBG ([2]; Frozen −10°, 168 hours (1 wk.)): 72%
percent of iodine remaining bound to the MIBG ([2]; Lyophilized and stabilized per invention, stored at room temp., 24 hours): 97%
percent of iodine remaining bound to the MIBG ([2]; Refrigerated ~+5°, 24 hours): 92%
percent of iodine remaining bound to the MIBG ([2]; Refrigerated ~+5°, 48 hours): 85%
percent of iodine remaining bound to the MIBG ([2]; Refrigerated ~+5°, 72 hours): 77%
percent of iodine remaining bound to the MIBG ([2]; Refrigerated ~+5°, 168 hours (1 wk.)): 55%
activity on storage ([2]; not stabilized and lyophilized per this invention): deteriorated sharply
